What was measured:
Gallus gallus = species: Gallus gallus; experiment: Tested for anti-coccidial activity; type: functional
Monoamine oxidase = molecular target: T1, Monoamine oxidase (Homo sapiens, UniProt P21397+P27338); experiment: Binding affinity towards monoaminooxidase Relative to MPTP; type: protein assay
T1 sequence (P21397 whole entry): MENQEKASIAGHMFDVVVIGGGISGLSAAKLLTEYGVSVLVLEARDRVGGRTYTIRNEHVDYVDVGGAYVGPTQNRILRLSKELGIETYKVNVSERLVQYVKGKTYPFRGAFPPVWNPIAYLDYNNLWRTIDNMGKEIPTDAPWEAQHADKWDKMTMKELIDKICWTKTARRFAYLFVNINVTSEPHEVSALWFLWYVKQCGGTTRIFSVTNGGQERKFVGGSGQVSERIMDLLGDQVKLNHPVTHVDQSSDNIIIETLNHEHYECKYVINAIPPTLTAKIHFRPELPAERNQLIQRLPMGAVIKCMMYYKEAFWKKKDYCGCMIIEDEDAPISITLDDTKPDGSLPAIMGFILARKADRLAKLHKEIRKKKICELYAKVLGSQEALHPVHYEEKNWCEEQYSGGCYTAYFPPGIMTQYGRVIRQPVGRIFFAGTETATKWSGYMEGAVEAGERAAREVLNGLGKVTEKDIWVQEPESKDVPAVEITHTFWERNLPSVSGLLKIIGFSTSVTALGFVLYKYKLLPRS
T1 sequence (P27338 whole entry): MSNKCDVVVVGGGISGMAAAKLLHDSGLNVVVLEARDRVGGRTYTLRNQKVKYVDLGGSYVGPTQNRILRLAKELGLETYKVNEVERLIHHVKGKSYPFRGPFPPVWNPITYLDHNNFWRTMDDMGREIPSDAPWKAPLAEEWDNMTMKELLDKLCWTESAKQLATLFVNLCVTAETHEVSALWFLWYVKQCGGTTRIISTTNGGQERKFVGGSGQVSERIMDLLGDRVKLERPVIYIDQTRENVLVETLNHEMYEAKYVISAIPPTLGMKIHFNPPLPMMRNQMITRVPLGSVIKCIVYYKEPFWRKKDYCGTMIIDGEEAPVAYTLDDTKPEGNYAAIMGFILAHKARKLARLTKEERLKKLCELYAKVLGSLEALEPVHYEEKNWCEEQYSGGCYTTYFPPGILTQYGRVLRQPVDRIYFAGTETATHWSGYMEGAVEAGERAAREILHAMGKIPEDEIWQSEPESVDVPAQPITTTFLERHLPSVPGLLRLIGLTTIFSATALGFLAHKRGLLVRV

SMILES | Log 1/MEC (Gallus gallus) | Relative activity (Monoamine oxidase)
Cc1cc(-n2ncc(=O)[nH]c2=O)cc(Cl)c1S(=O)(=O)c1ccc(Cl)cc1 | 1.71 | 
Cc1cc(-n2ncc(=O)[nH]c2=O)ccc1Oc1ccc(Br)cc1 | 1.7 | 
C/C(=C\CN(C)C)c1ccccc1 |  | 3
O=c1cnn(-c2ccc(C(O)c3ccc(Cl)cc3)c(Cl)c2)c(=O)[nH]1 (centres undefined) | 2.26 | 
N#CCCC(=O)N1CC=C(c2ccccc2)CC1 |  | 1
CN1CC=C(Cc2ccccc2)CC1 |  | 3
CN1CC=C(c2cccc(Br)c2)CC1 |  | 3
O=c1cnn(-c2ccc(Sc3ccc(Cl)cc3)c(Cl)c2)c(=O)[nH]1 | 2.26 | 
C1=C(c2ccccc2)CCN(CC2CC2)C1 |  | 1
CCc1ccccc1C1=CCN(C)CC1 |  | 3
CN1CC=C(c2cccc(Cl)c2)CC1 |  | 3
Cc1cc(Cl)cc(-n2ncc(=O)[nH]c2=O)c1 | 1.2 | 
O=c1cnn(-c2ccc(Oc3ccc(I)cc3)c(Cl)c2)c(=O)[nH]1 | 1.77 | 
C=CCN1CC=C(c2ccccc2)CC1 |  | 1
N#Cc1cccc(-n2ncc(=O)[nH]c2=O)c1 | 0.85 | 
CC(=O)c1ccc(Oc2c(C)cc(-n3ncc(=O)[nH]c3=O)cc2Cl)cc1 | 2.27 | 
CC1=C(c2ccccc2)CCN(C)C1 |  | 2
CCCCN1CC=C(c2ccccc2)CC1 |  | 1
O=c1cnn(-c2cccc(C(F)(F)F)c2)c(=O)[nH]1 | 0.93 | 
CS(=O)(=O)c1ccc(-n2ncc(=O)[nH]c2=O)cc1 | -0.27 | 
O=c1cnn(-c2cc(Cl)cc(Cl)c2)c(=O)[nH]1 | 1.81 | 
O=c1cnn(-c2ccc(Sc3ccc4ccccc4c3)c(Cl)c2)c(=O)[nH]1 | 0.48 | 
OCCN1CC=C(c2ccccc2)CC1 |  | 2
CN1CC=C(C(C)(C)C)CC1 |  | 2

SMILES | Log 1/MEC (Gallus gallus) | Relative activity (Monoamine oxidase)
Cc1ccccc1C1=CCN(C)CC1 |  | 3
Cc1cc(-n2ncc(=O)[nH]c2=O)cc(Cl)c1Oc1ccc(Cl)cc1 | 1.98 | 
O=c1cnn(-c2ccc(Cc3ccc(Cl)cc3)c(Cl)c2)c(=O)[nH]1 | 1.64 | 
O=C(c1ccc(Cl)cc1)c1c(Cl)cc(-n2ncc(=O)[nH]c2=O)cc1Cl | 2.9 | 
N#CC(c1ccc(Cl)cc1)c1c(Cl)cc(-n2ncc(=O)[nH]c2=O)cc1Cl (centres undefined) [DICLAZURIL] | 3.61 | 
O=c1cnn(-c2ccc(S(=O)(=O)c3ccccc3)cc2)c(=O)[nH]1 | 1.04 | 
Cc1cc(C)cc(-n2ncc(=O)[nH]c2=O)c1 | 0.86 | 
C1=C(c2ccccc2)CCNC1 |  | 3
O=c1cnn(-c2ccc([N+](=O)[O-])cc2)c(=O)[nH]1 | -0.03 | 
CCC1=CCN(C)CC1 |  | 2
O=c1cnn(-c2cc(Cl)c(Sc3ccc(Cl)cc3)c(Cl)c2)c(=O)[nH]1 | 3.3 | 
O=c1cnn(-c2cc(Cl)c(S(=O)(=O)c3ccc(Cl)cc3)c(Cl)c2)c(=O)[nH]1 | 2.94 | 
CCN(C)S(=O)(=O)c1ccc(Oc2c(C)cc(-n3ncc(=O)[nH]c3=O)cc2Cl)c(Cl)c1 | 2.11 | 
Cc1cccc(C2=CCN(C)CC2)c1 |  | 3
CN1CC=C(c2ccccc2)CC1 |  | 3
CSc1ccc(Oc2c(C)cc(-n3ncc(=O)[nH]c3=O)cc2C)cc1 | 2.25 | 
O=c1cnn(-c2ccc(Oc3ccccc3)cc2)c(=O)[nH]1 | -0.25 | 
COc1c(Cl)cc(-n2ncc(=O)[nH]c2=O)cc1Cl | 0.06 | 
Cc1cc(-n2ncc(=O)[nH]c2=O)cc(C)c1C(=O)c1ccc(Cl)cc1 | 1.38 | 
O=c1cnn(-c2cc(Cl)c(Cc3ccc(Cl)cc3)c(Cl)c2)c(=O)[nH]1 | 3.18 | 
O=c1cnn(-c2ccc(F)c(C(F)(F)F)c2)c(=O)[nH]1 | 1.26 | 
CCN1CC=C(c2ccccc2)CC1 |  | 2
CN1CC=C(C2CCCCC2)CC1 |  | 3
Cc1cc(-n2ncc(=O)[nH]c2=O)ccc1Oc1ccc(S(C)(=O)=O)cc1 | 1.97 | 

SMILES | Log 1/MEC (Gallus gallus) | Relative activity (Monoamine oxidase)
Cc1cc(-n2ncc(=O)[nH]c2=O)cc(C)c1[S+]([O-])c1ccc(Cl)cc1 (centres undefined) | 2.58 | 
COc1cc(-n2ncc(=O)[nH]c2=O)cc(OC)c1OC | -0.55 | 
CN1CCc2c([nH]c3ccccc23)C1 |  | 2
O=c1cnn(-c2ccccc2)c(=O)[nH]1 | -0.42 | 
Cc1cc(-n2ncc(=O)[nH]c2=O)cc(Cl)c1Oc1ccc(S(=O)(=O)NC2CC2)cc1Cl | 1.51 | 
CN1CCC(c2ccccc2)CC1 |  | 1
CCCN1CC=C(c2ccccc2)CC1 |  | 1
O=c1cnn(-c2ccc(Oc3ccc(Cl)cc3Cl)c(Cl)c2)c(=O)[nH]1 | 1.71 | 
CC(C)N1CC=C(c2ccccc2)CC1 |  | 1
CN1CC=C(c2ccccc2Cl)CC1 |  | 3
CN1CC=C(c2cccn2C)CC1 |  | 3
Cc1cc(-n2ncc(=O)[nH]c2=O)cc(C)c1S(=O)(=O)c1ccc(Cl)cc1 | 2.59 | 
Fc1ccc(C2=CCNCC2)cc1 |  | 2
O=c1cnn(-c2cc(Cl)c(S(=O)(=O)N3CCOCC3)c(Cl)c2)c(=O)[nH]1 | 1.13 | 
CC(=O)c1ccc(Sc2c(C)cc(-n3ncc(=O)[nH]c3=O)cc2Cl)cc1 | 3.19 | 
O=c1cnn(-c2ccc(S(=O)(=O)N3CCOCC3)c(Cl)c2)c(=O)[nH]1 | 1.09 | 
CCN1CC=CCC1 |  | 2
CN1CC=C(c2ccc(F)cc2)CC1 |  | 2
Clc1ccc(C2=CCNCC2)cc1 |  | 2
O=c1cnn(-c2ccc(S(=O)(=O)c3ccc(Cl)cc3)cc2)c(=O)[nH]1 | 1.96 | 
COc1cc(OC)cc(-n2ncc(=O)[nH]c2=O)c1 | -0.3 | 
Cc1cc(-n2ncc(=O)[nH]c2=O)ccc1Oc1ccc(Cl)cc1Cl | 1.69 | 
CN1CC=C(c2cccs2)CC1 |  | 2
C1=C(c2ccccc2)CCN(Cc2ccccc2)C1 |  | 1

SMILES | Log 1/MEC (Gallus gallus) | Relative activity (Monoamine oxidase)
O=c1cnn(-c2ccc(Oc3ccc4cc(Br)ccc4c3)c(Cl)c2)c(=O)[nH]1 | 1.77 | 
Cc1cc(-n2ncc(=O)[nH]c2=O)cc(Cl)c1Sc1ccc(Cl)cc1 | 3.28 | 
Cc1cc(-n2ncc(=O)[nH]c2=O)cc(Cl)c1Oc1ccc(C(C)O)cc1 (centres undefined) | 2.27 | 
CN1CC=C(c2ccc(Cl)cc2)CC1 |  | 2
COc1cccc(C2=CCN(C)CC2)c1 |  | 2
Cc1cc(-n2ncc(=O)[nH]c2=O)ccc1Oc1ccc(Cl)cc1 | 0.74 | 
CSc1ccc(Oc2c(C)cc(-n3ncc(=O)[nH]c3=O)cc2C)cc1C | 2.27 | 
CN1CC=C(c2cccc(F)c2)CC1 |  | 3
CSc1ccc(Oc2ccc(-n3ncc(=O)[nH]c3=O)cc2Cl)cc1 | 1.98 | 
Cc1ccc(C2=CCN(C)CC2)cc1 |  | 2
O=c1cnn(-c2ccc(S(=O)(=O)c3ccc(Br)cc3)cc2)c(=O)[nH]1 | 1.71 | 
CN1CC=C(c2ccccc2C(F)(F)F)CC1 |  | 3
CN1CC=C(c2ccccc2F)CC1 |  | 3
Cc1cc(-n2ncc(=O)[nH]c2=O)cc(C)c1Sc1ccc(Cl)cc1 [TIAZURIL] | 2.86 | 
CC1CN(C)CC=C1c1ccccc1 (centres undefined) |  | 2
O=c1cnn(-c2ccc(Br)c(C(F)(F)F)c2)c(=O)[nH]1 | 1.35 | 
O=c1cnn(-c2cccc(Cl)c2)c(=O)[nH]1 | 0.25 | 
Cc1cc(-n2ncc(=O)[nH]c2=O)ccc1C(O)c1ccccc1 (centres undefined) | 1.01 | 
CSc1ccc(Oc2ccc(-n3ncc(=O)[nH]c3=O)cc2C)cc1 | 2.23 | 
Cc1cccc(C)c1C1=CCN(C)CC1 |  | 3
COc1ccccc1C1=CCN(C)CC1 |  | 3
Cc1cc(-n2ncc(=O)[nH]c2=O)cc(C)c1S(=O)(=O)N1CCOCC1 | 1.39 | 

Reference: ChEMBL document CHEMBL1126835, “QSAR's from similarity matrices. Technique validation and application in the comparison of different similarity evaluation methods” (J Med Chem, 1993)
